These results are taken from patent US7981903B2, “2-[2-{phenylamino}-1H-pyrrolo[2,3-D]pyrimidin-4-yl)amino] benzamide derivatives as IGF-1R inhibitors for the treatment of cancer” (GlaxoSmithKline LLC, priority 2007, dated 2011).

The structures appear in SMILES notation. A value given as a limit tells only on which side of the number the result lay.

The target in this test is T1, NIH-3T3 cells overexpressing human IR (Homo sapiens, UniProt P06213).
T1 construct: expressed in transfected cells; host or cells: NIH-3T3 (mouse fibroblasts)
T1 sequence (P06213 28-1382): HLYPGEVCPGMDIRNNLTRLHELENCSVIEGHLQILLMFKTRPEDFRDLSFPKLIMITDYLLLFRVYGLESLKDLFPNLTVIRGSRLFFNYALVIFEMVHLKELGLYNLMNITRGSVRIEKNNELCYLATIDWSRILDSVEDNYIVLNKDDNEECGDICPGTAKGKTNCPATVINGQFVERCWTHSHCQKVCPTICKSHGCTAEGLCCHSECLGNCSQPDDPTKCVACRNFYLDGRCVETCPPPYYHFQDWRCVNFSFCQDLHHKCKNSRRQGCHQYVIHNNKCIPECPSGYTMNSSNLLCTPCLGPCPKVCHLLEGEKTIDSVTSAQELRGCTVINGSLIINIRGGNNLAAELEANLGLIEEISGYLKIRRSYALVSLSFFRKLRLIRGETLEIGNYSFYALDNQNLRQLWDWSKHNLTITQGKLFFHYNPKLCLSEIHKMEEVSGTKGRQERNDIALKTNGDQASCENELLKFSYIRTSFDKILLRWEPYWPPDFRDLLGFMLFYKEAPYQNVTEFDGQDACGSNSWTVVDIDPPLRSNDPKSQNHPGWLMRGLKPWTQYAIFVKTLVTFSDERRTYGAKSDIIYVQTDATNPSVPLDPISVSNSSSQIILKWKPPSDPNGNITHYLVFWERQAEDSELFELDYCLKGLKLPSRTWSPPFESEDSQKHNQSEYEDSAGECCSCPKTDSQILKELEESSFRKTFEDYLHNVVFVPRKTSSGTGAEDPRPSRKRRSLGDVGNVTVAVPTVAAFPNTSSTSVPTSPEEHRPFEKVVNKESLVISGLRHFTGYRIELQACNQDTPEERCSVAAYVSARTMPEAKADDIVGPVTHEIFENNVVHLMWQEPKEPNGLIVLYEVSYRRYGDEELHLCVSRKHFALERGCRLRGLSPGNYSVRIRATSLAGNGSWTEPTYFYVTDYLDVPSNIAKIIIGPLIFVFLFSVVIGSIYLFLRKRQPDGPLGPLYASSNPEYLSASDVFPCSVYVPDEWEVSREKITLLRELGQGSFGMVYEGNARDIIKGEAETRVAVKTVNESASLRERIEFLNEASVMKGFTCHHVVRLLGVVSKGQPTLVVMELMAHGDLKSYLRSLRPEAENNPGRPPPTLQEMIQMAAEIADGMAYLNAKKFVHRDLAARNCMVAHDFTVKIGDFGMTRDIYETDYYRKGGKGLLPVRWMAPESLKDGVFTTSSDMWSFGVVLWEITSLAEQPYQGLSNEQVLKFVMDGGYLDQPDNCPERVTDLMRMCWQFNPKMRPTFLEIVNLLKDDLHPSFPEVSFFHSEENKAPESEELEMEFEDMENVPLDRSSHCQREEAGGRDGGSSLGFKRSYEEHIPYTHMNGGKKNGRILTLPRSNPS
Description: IR cellular autophosphorylation (DELFIA). Format: cell-based. The conditions noted are these: 2 h compound, insulin 3 ug/ml for 15 minutes, IC50 category. The method in brief: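 Receptor autophosphorylation measured by DELFIA, capturing IGF-1R or IRβ and detecting with europium anti-pTyr, reported as percent of IGF-1- or insulin-stimulated signal. Compounds (30 uM to 1.5 nM) added 2 h before ligand, then 15 min stimulation (IGF-1 30 ng/ml or insulin 3 ug/ml).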

For `COc1cc(N2CCC(N3CC[C@@H](F)C3)CC2)ccc1Nc1nc(Nc2cc(F)ccc2C(N)=O)c2cc[nH]c2n1` [Example 76, 4-fluoro-2-[(2-{[4-{4-[(3R)-3-fluoro-1-pyrrolidinyl]-1-piperidinyl}-2-(methyloxy)phenyl]amino}-1H-pyrrolo[2,3-d]pyrimidin-4-yl)amino]benzamide], the IC50 fell in the range of 100 to 500 nM.

Turning to `COc1cc2c(cc1Nc1nc(Nc3cccc(F)c3C(=O)NC(C)C)c3cc[nH]c3n1)N(C(=O)CN(C)C)CC2` [Example 158, 2-[(2-{[1-(N,N-dimethylglycyl)-5-(methyloxy)-2,3-dihydro-1H-indol-6-yl]amino}-1H-pyrrolo[2,3-d]pyrimidin-4-yl)amino]-6-fluoro-N-(1-methylethyl)benzamide], the half-inhibitory concentration (IC50) is greater than 500 nM.

The compound `CNC(=O)c1c(Nc2nc(Nc3cc4c(cc3OC)CCCN4C(=O)CN(C)C)nc3[nH]ccc23)ccc(F)c1F` [Example 163, 6-[(2-{[1-(N,N-dimethylglycyl)-6-(methyloxy)-1,2,3,4-tetrahydro-7-quinolinyl]amino}-1H-pyrrolo[2,3-d]pyrimidin-4-yl)amino]-2,3-difluoro-N-methylbenzamide] yielded an IC50 of less than 100 nM.

The compound `CCC(C)N1CCc2cc(OC)c(Nc3nc(Nc4cccc(F)c4C(N)=O)c4cc[nH]c4n3)cc2C1` (centres unmarked) [Example 237, 2-fluoro-6-[(2-{[6-(methyloxy)-2-(1-methylpropyl)-1,2,3,4-tetrahydro-7-isoquinolinyl]amino}-1H-pyrrolo[2,3-d]pyrimidin-4-yl)amino]benzamide] yielded an IC50 of less than 100 nM.

With `COc1cc(N2CCOCC2)ccc1Nc1nc(Nc2cc(F)ccc2C(N)=O)c2cc[nH]c2n1` [Example 83, 4-fluoro-2-[(2-{[2-(methyloxy)-4-(4-morpholinyl)phenyl]amino}-1H-pyrrolo[2,3-d]pyrimidin-4-yl)amino]benzamide], the half-inhibitory concentration (IC50) was less than 100 nM.

The compound `COc1cc2c(cc1Nc1nc(Nc3cccc(F)c3C(N)=O)c3cc[nH]c3n1)N(C(=O)CN1CCCC1)CC2` [Example 138, 2-fluoro-6-[(2-{[5-(methyloxy)-1-(1-pyrrolidinylacetyl)-2,3-dihydro-1H-indol-6-yl]amino}-1H-pyrrolo[2,3-d]pyrimidin-4-yl)amino]benzamide] showed an IC50 of less than 100 nM.

Turning to `COc1cc(N2CCC(N3CCN(S(C)(=O)=O)CC3)CC2)ccc1Nc1nc(Nc2cccc(F)c2C(N)=O)c2cc[nH]c2n1` [Example 113, 2-fluoro-6-({2-[(2-(methyloxy)-4-{4-[4-(methylsulfonyl)-1-piperazinyl]-1-piperidinyl}phenyl)amino]-1H-pyrrolo[2,3-d]pyrimidin-4-yl}amino)benzamide], the IC50 is 100 to 500 nM.

`COc1cc(N2CCN(C(C)C)CC2)c(F)cc1Nc1nc(Nc2cccc(F)c2C(N)=O)c2cc[nH]c2n1` [Example 48, 2-fluoro-6-[(2-{[5-fluoro-4-[4-(1-methylethyl)-1-piperazinyl]-2-(methyloxy)phenyl]amino}-1H-pyrrolo[2,3-d]pyrimidin-4-yl)amino]benzamide] had an IC50 of less than 100 nM.

`COc1cc2c(cc1Nc1nc(Nc3cccc(F)c3C(N)=O)c3cc[nH]c3n1)CN(C(=O)CN(C)C)CC2` [Example 123, 2-[(2-{[2-(N,N-dimethylglycyl)-6-(methyloxy)-1,2,3,4-tetrahydro-7-isoquinolinyl]amino}-1H-pyrrolo[2,3-d]pyrimidin-4-yl)amino]-6-fluorobenzamide] yielded a half-maximal inhibitory concentration (IC50) of 100 to 500 nM.

In turn, `CNC(=O)c1c(F)cccc1Nc1nc(Nc2cc(NC(=O)CN(C)C)ccc2OC)nc2[nH]ccc12` [Example 245, 2-[(2-{[5-[(N,N-dimethylglycyl)amino]-2-(methyloxy)phenyl]amino}-1H-pyrrolo[2,3-d]pyrimidin-4-yl)amino]-6-fluoro-N-methylbenzamide] came in with a half-maximal inhibitory concentration (IC50) greater than 500 nM.

Take `CCN(CC)CC(=O)N1CCc2cc(OC)c(Nc3nc(Nc4cccc(F)c4C(N)=O)c4cc[nH]c4n3)cc21` [Example 136, 2-[(2-{[1-(N,N-diethylglycyl)-5-(methyloxy)-2,3-dihydro-1H-indol-6-yl]amino}-1H-pyrrolo[2,3-d]pyrimidin-4-yl)amino]-6-fluorobenzamide]: the IC50 is less than 100 nM.

`CCCN1CCCC(c2ccc(Nc3nc(Nc4cc(F)ccc4C(N)=O)c4cc[nH]c4n3)c(OC)c2)C1` (centres unmarked) [Example 71, 4-fluoro-2-[(2-{[2-(methyloxy)-4-(1-propyl-3-piperidinyl)phenyl]amino}-1H-pyrrolo[2,3-d]pyrimidin-4-yl)amino]benzamide] displayed an IC50 of 100 to 500 nM.

For the compound `COc1cc(N2CCN(C(C)C)CC2)ccc1Nc1nc(Nc2cccc3c2C(=O)NC3)c2cc[nH]c2n1` [Example 199, 7-[(2-{[4-[4-(1-methylethyl)-1-piperazinyl]-2-(methyloxy)phenyl]amino}-1H-pyrrolo[2,3-d]pyrimidin-4-yl)amino]-2,3-dihydro-1H-isoindol-1-one], the IC50 was less than 100 nM.

In turn, `COc1c(Nc2nc(Nc3cccc(F)c3C(N)=O)c3cc[nH]c3n2)ccc(N2CCN(C(C)C)CC2)c1F` [Example 51, 2-fluoro-6-[(2-{[3-fluoro-4-[4-(1-methylethyl)-1-piperazinyl]-2-(methyloxy)phenyl]amino}-1H-pyrrolo[2,3-d]pyrimidin-4-yl)amino]benzamide] came in with an IC50 greater than 500 nM.

On to `COc1cc(N2CCC(N3CC[C@@H](F)C3)CC2)ccc1Nc1nc(Nc2cccc(F)c2C(N)=O)c2cc[nH]c2n1` [Example 44, 2-fluoro-6-[(2-{[4-{4-[(3R)-3-fluoro-1-pyrrolidinyl]-1-piperidinyl}-2-(methyloxy)phenyl]amino}-1H-pyrrolo[2,3-d]pyrimidin-4-yl)amino]benzamide], for which the IC50 was greater than 500 nM.

Take `COc1cc2c(cc1Nc1nc(Nc3cccc(F)c3C(N)=O)c3cc[nH]c3n1)N(C(=O)CN)CC2` [Example 141, 2-fluoro-6-[(2-{[1-glycyl-5-(methyloxy)-2,3-dihydro-1H-indol-6-yl]amino}-1H-pyrrolo[2,3-d]pyrimidin-4-yl)amino]benzamide]: the IC50 was greater than 500 nM.

On to `COc1cc2c(cc1Nc1nc(Nc3cccc(F)c3C(N)=O)c3cc[nH]c3n1)CN(CCF)CC2` [Example 233, 2-fluoro-6-[(2-{[2-(2-fluoroethyl)-6-(methyloxy)-1,2,3,4-tetrahydro-7-isoquinolinyl]amino}-1H-pyrrolo[2,3-d]pyrimidin-4-yl)amino]benzamide], for which the IC50 is less than 100 nM.

In the case of `CNC(=O)c1c(F)cc(Cl)cc1Nc1nc(Nc2cc3c(cc2OC)CCCN3C(=O)CN2CCCC2)nc2[nH]ccc12` [Example 174, 4-chloro-2-fluoro-N-methyl-6-[(2-{[6-(methyloxy)-1-(1-pyrrolidinylacetyl)-1,2,3,4-tetrahydro-7-quinolinyl]amino}-1H-pyrrolo[2,3-d]pyrimidin-4-yl)amino]benzamide], the half-maximal inhibitory concentration (IC50) was in the range of 100 to 500 nM.

For `CCCNC(=O)c1c(F)cccc1Nc1nc(Nc2cc3c(cc2OC)CCN3C(=O)CN(C)C)nc2[nH]ccc12` [Example 156, 2-[(2-{[1-(N,N-dimethylglycyl)-5-(methyloxy)-2,3-dihydro-1H-indol-6-yl]amino}-1H-pyrrolo[2,3-d]pyrimidin-4-yl)amino]-6-fluoro-N-propylbenzamide], the IC50 was 100 to 500 nM.

Compound `COc1cc2c(cc1Nc1nc(Nc3cc(F)cc(F)c3C(=O)NCc3ccc(F)cc3)c3cc[nH]c3n1)N(C(=O)CN(C)C)CC2` [Example 155, 2-[(2-{[1-(N,N-dimethylglycyl)-5-(methyloxy)-2,3-dihydro-1H-indol-6-yl]amino}-1H-pyrrolo[2,3-d]pyrimidin-4-yl)amino]-4,6-difluoro-N-[(4-fluorophenyl)methyl]benzamide] had a 50% inhibitory concentration (IC50) of 100 to 500 nM.

Consider `COc1cc(N2CCOC[C@@H]2C)ccc1Nc1nc(Nc2cccc(F)c2C(N)=O)c2cc[nH]c2n1` [Example 49, 2-fluoro-6-[(2-{[4-[(3S)-3-methyl-4-morpholinyl]-2-(methyloxy)phenyl]amino}-1H-pyrrolo[2,3-d]pyrimidin-4-yl)amino]benzamide], for which the concentration for half-maximal inhibition (IC50) lay within 100 to 500 nM.

`CNC(=O)c1c(F)cccc1Nc1nc(Nc2cc3c(cc2OC)CCCN3C(=O)CN2CCCCC2)nc2[nH]ccc12` [Example 217, 2-fluoro-N-methyl-6-[(2-{[6-(methyloxy)-1-(1-piperidinylacetyl)-1,2,3,4-tetrahydro-7-quinolinyl]amino}-1H-pyrrolo[2,3-d]pyrimidin-4-yl)amino]benzamide] yielded an IC50 of less than 100 nM.

The compound `COc1cc(N2CCC(N3CCOCC3)CC2)ccc1Nc1nc(Nc2cc(F)c(F)cc2C(N)=O)c2cc[nH]c2n1` [Example 101, 4,5-difluoro-2-{[2-({2-(methyloxy)-4-[4-(4-morpholinyl)-1-piperidinyl]phenyl}amino)-1H-pyrrolo[2,3-d]pyrimidin-4-yl]amino}benzamide] came in with an IC50 greater than 500 nM.

`CCCN1CCC(c2ccc(Nc3nc(Nc4cc(F)ccc4C(N)=O)c4cc[nH]c4n3)c(OC)c2)CC1` [Example 73, 4-fluoro-2-[(2-{[2-(methyloxy)-4-(1-propyl-4-piperidinyl)phenyl]amino}-1H-pyrrolo[2,3-d]pyrimidin-4-yl)amino]benzamide]: the IC50 was less than 100 nM.

In turn, `COc1cc(C2CCN(C(C)C)CC2)ccc1Nc1nc(Nc2cc(F)c(F)cc2C(N)=O)c2cc[nH]c2n1` [Example 97, 4,5-difluoro-2-[(2-{[4-[1-(1-methylethyl)-4-piperidinyl]-2-(methyloxy)phenyl]amino}-1H-pyrrolo[2,3-d]pyrimidin-4-yl)amino]benzamide] had a 50% inhibitory concentration (IC50) of less than 100 nM.

`COc1cc(N2CCC(N3CC[C@H](F)C3)CC2)ccc1Nc1nc(Nc2cc(F)ccc2C(N)=O)c2cc[nH]c2n1` [Example 75, 4-fluoro-2-[(2-{[4-{4-[(3S)-3-fluoro-1-pyrrolidinyl]-1-piperidinyl}-2-(methyloxy)phenyl]amino}-1H-pyrrolo[2,3-d]pyrimidin-4-yl)amino]benzamide] registered an IC50 of less than 100 nM.
